Measurements published in patent US4885170A, “Antibiotic A80509” (Eli Lilly and Company, priority 1988, dated 1989).
Positions of bridges follow the written chain, without caps; N, C: chain ends. Non-standard residues stand in square brackets, D forms with d. Residues, ends and D or L forms follow the SMILES beside them. *: point of attachment. Ileψ(thiazoline)Cys = CC[C@H](C)[C@H](N)C1=N[C@H](C(=O)*)CS1; dOrn = NCCC[C@@H](N)C(=O)O

Tested on: Culture A80509
Assay: resistance of culture A80509 to antibiotics, sensitivity discs on agar

## CC[C@H](C)[C@H](N)C1=N[C@H](C(=O)N[C@@H](CC(C)C)C(=O)N[C@H](CCC(=O)O)C(=O)N[C@H](C(=O)N[C@H]2CCCCNC(=O)[C@H](CC(N)=O)NC(=O)[C@@H](CC(=O)O)NC(=O)[C@H](Cc3cnc[nH]3)NC(=O)[C@@H](Cc3ccccc3)NC(=O)[C@H]([C@@H](C)CC)NC(=O)[C@@H](CCCN)NC2=O)[C@@H](C)CC)CS1 [bacitracin] ({Ileψ(thiazoline)Cys}-L[dE]IK[dOrn]I[dF]H[dD]N; lactam 4-C)
Disc 10 units
  resistance/sensitivity of culture A80509: sensitive

## neomycin
Disc 30 μg
  resistance/sensitivity of culture A80509: sensitive

## CC1(C)S[C@@H]2[C@H](NC(=O)Cc3ccccc3)C(=O)N2[C@H]1C(=O)O [penicillin G]
Disc 10 units
  resistance/sensitivity of culture A80509: resistant

## CN[C@H](CC(C)C)C(=O)N[C@H]1C(=O)N[C@@H](CC(N)=O)C(=O)N[C@H]2C(=O)N[C@H]3C(=O)N[C@H](C(=O)N[C@H](C(=O)O)c4cc(O)cc(O)c4-c4cc3ccc4O)[C@H](O)c3ccc(c(Cl)c3)Oc3cc2cc(c3O[C@@H]2O[C@H](CO)[C@@H](O)[C@H](O)[C@H]2O[C@H]2C[C@](C)(N)[C@H](O)[C@H](C)O2)Oc2ccc(cc2Cl)[C@H]1O [vancomycin]
Disc 30 μg
  resistance/sensitivity of culture A80509: sensitive

## NC[C@H]1O[C@H](O[C@H]2[C@H](O)[C@@H](O[C@H]3O[C@H](CO)[C@@H](O)[C@H](N)[C@H]3O)[C@H](N)C[C@@H]2N)[C@H](N)C[C@@H]1O [tobramycin]
Disc 10 μg
  resistance/sensitivity of culture A80509: sensitive

## CC(=O)OCC1=C(C(=O)O)N2C(=O)[C@@H](NC(=O)Cc3cccs3)[C@H]2SC1 [cephalothin]
Disc 30 μg
  resistance/sensitivity of culture A80509: resistant

## gentamicin
Disc 10 μg
  resistance/sensitivity of culture A80509: sensitive

## CCC[C@@H]1C[C@@H](C(=O)N[C@@H]([C@H]2O[C@H](SC)[C@H](O)[C@@H](O)[C@H]2O)[C@@H](C)O)N(C)C1 [lincomycin]
Disc 2 μg
  resistance/sensitivity of culture A80509: resistant

## CO[C@H]1/C=C/O[C@@]2(C)Oc3c(C)c(O)c4c(O)c(c(/C=N/N5CCN(C)CC5)c(O)c4c3C2=O)NC(=O)/C(C)=C\C=C\[C@H](C)[C@H](O)[C@@H](C)[C@@H](O)[C@@H](C)[C@H](OC(C)=O)[C@@H]1C [rifampin]
Disc 5 μg
  resistance/sensitivity of culture A80509: sensitive

## [H]/N=C(/N)N[C@H]1[C@H](O)[C@@H](O)[C@H](O[C@@H]2O[C@@H](C)[C@](O)(C=O)[C@H]2O[C@@H]2O[C@@H](CO)[C@H](O)[C@@H](O)[C@@H]2NC)[C@@H](N/C(N)=N\[H])[C@@H]1O [streptomycin]
Disc 10 μg
  resistance/sensitivity of culture A80509: sensitive

## CO[C@H]1C[C@H](O[C@H]2[C@H](C)[C@@H](O[C@@H]3O[C@H](C)C[C@H](N(C)C)[C@H]3O)[C@@H](C)C[C@@]3(CO3)C(=O)[C@H](C)[C@@H](O)[C@@H](C)[C@@H](C)OC(=O)[C@@H]2C)O[C@@H](C)[C@@H]1O [oleandomycin]
Disc 15 μg
  resistance/sensitivity of culture A80509: resistant

## CN(C)C1C(=O)C(C(N)=O)=C(O)C2(O)C(=O)C3=C(O)c4c(O)cccc4C(C)(O)C3CC12 (stereo not drawn) [tetracycline]
Disc 30 μg
  resistance/sensitivity of culture A80509: sensitive
